Each structure is given as a SMILES string. Several values for one entry are separate records, joined by “and”; a condition that tells them apart may be missing. Identical values can stand only once. Counter-ions that a name gives are not always drawn.

In data set [1] the test system is intraocular pressure. The data set can be described thus: Efficacy Test 3: intraocular pressure in normal rabbits (Alcon pneumatic tonometer). In kind it is in vivo, rabbit (male New Zealand Albino). To be noted: for Intraocular pressure 30 minutes after instillation, average / Intraocular pressure 1 hour after instillation, average / Intraocular pressure 30 minutes after instillation / Intraocular pressure 1 hour after instillation: 1% (W/V), 100 μl. As for the experimental part: Male rabbits of New Zealand Albino strain, weighing 1.8 to 2.5 kg, are used as experimental animals. Intraocular pressure is measured with an Alcon pneumatic tonometer without local anesthesia, while holding the animal in a cylindrical rabbit holder.
The test compound is dissolved in a physiological solution of NaCl to a concentration of 1% (W/V), and the resulting solution is adjusted to a pH of 6.5 to 7.0 with a 0.01 N aqueous NaOH solution. The solution is instilled to one of the eyes of the animal in an accurate amount of 100 μl with a microsyringe after measuring the intraocular pressure of the eye. The eyelid is held closed for 1 minute after the instillation to prevent the escape of the solution.
The efficacy of the test compound is determined by measuring the intraocular pressure 30 minutes and 1 hour after the instillation and comparing the measurements with the pressure measured before the instillation. A 100 μl quantity of physiological saline containing no test compound is similarly tested on a control group.

Data set [2] in a line: Acute Toxicity Test, intravenous, mice. In kind it is in vivo. To be noted: mouse, in vivo. The method, then: (§1) Active compounds useful for the glaucoma treating compositions of this invention are intravenously administered to mice to test the compounds for acute toxicity.
(§2) Other active compounds of this invention are also tested for acute toxicity in the same manner as above, i.e., by intravenously administering them to mice. The LD50 values determined are all not lower than about 40 mg/kg.

Data set [3] has as its system mice. The data set can be described thus: Acute Toxicity Test, intravenous, mice. In kind it is in vivo. As for the experimental part:
as §1, §2

Data set [4] is described as follows: Acute toxicity, oral administration, male rats. Conditions: rat, in vivo. From the text:
*Determined by the oral administration of Compound C to male rats.

Take `CCNCC(O)COc1cccc2c1CCC(=O)N2` (centres unmarked) [Compound E, 5-(2-Hydroxy-3-ethylamino)propoxy-3,4-dihydrocarbostyril maleate]: in data set [1] (average of animals), the “Intraocular pressure 30 minutes after instillation, average” value (from here on “Intraocular pressure 30 minutes … average”) is 18.0 mm Hg and the “Intraocular pressure 1 hour after instillation, average” value (“Intraocular pressure 1 hour … average” below) is 17.0 mm Hg.
As for `CC(C)NCC(O)COc1cccc2c1NC(=O)CC2` (centres unmarked) [Compound I, 8-(2-Hydroxy-3-isopropylamino)propoxy-3,4-dihydrocarbostyril hydrochloride], in data set [1] (average of animals), the “Intraocular pressure 30 minutes … average” value worked out at 16.5 mm Hg and the “Intraocular pressure 1 hour … average” value is recorded as 16.5 mm Hg. This compound also displayed a median lethal dose (LD50) in data set [2] of 81.6 mg/kg.
On to `CCN1C(=O)CCc2c(OCC(O)CNC3CCCCC3)cccc21` (centres unmarked) [Compound H, 1-Ethyl-5-(2-hydroxy-3-cyclohexylamino)propoxy-3,4-dihydrocarbostyril hydrochloride], for which, in data set [1] (average of animals), the “Intraocular pressure 30 minutes … average” value is reported as 15.5 mm Hg and the “Intraocular pressure 1 hour … average” value is recorded as 15.5 mm Hg.
On to `CC(C)(C)NCC(O)COc1cccc2c1CCC(=O)N2` (centres unmarked) [Compound A, 5-(2-Hydroxy-3-tert-butylamino)propoxy-3,4-dihydrocarbostyril hydrochloride], for which, in data set [1] (average of animals), the “Intraocular pressure 30 minutes … average” value came to 17.2 mm Hg and the “Intraocular pressure 1 hour … average” value is 17.4 mm Hg. Further, the LD50 in data set [3] turned out to be 54.4 mg/kg.
Turning to `C=CCOc1ccc(OCC(O)CNC(C)(C)C)c2c1NC(=O)CC2` (centres unmarked) [Compound M, 8-Allyloxy-5-(2-hydroxy-3-tert-butylamino)propoxy-3,4-dihydrocarbostyril hydrochloride], in data set [1] (average of animals), the “Intraocular pressure 30 minutes … average” value came to 19.0 mm Hg and the “Intraocular pressure 1 hour … average” value was 18.0 mm Hg. Moreover, in data set [1] (individual animal), the “Intraocular pressure 30 minutes after instillation” value worked out at 19 mm Hg and the “Intraocular pressure 1 hour after instillation” value was 18 mm Hg.
In the case of `CC(C)(C)NCC(O)COc1cccc2[nH]c(=O)ccc12` (centres unmarked) [Compound B, 5-(2-Hydroxy-3-tert-butylamino)propoxycarbostyril hydrochloride], in data set [1] (average of animals), the “Intraocular pressure 30 minutes … average” value was 17.0 mm Hg and the “Intraocular pressure 1 hour … average” value is given as 16.5 mm Hg. The same compound showed an LD50 in data set [2] of 44.6 mg/kg.
Turning to `C#CCOc1ccc(OCC(O)CNCCc2ccc(OC)c(OC)c2)c2c1NC(=O)CC2.O=C(O)C(=O)O` (stereo not drawn) [Compound K, 8-Propynyloxy-5-[2-hydroxy-3-(β-3,4-dimethoxyphenethylamino)]propoxy-3,4-dihydrocarbostyril oxalate], in data set [1] (average of animals), the “Intraocular pressure 30 minutes … average” value is 18.5 mm Hg and the “Intraocular pressure 1 hour … average” value is given as 18.0 mm Hg. Also, the “Intraocular pressure before instillation, average” value in data set [1] (average of animals, baseline) amounted to 19.5 mm Hg. Moreover, in data set [1] (individual animal), the “Intraocular pressure 30 minutes after instillation” value was 19 mm Hg and 18 mm Hg; the “Intraocular pressure 1 hour after instillation” value is listed as 18 mm Hg. For the same compound, the “Intraocular pressure before instillation” value in data set [1] (individual animal, baseline) is 20 mm Hg and 19 mm Hg.
On to `C=CCN1C(=O)CCc2c(OCC(O)CNC(C)(C)C)cccc21` (centres unmarked) [Compound N, 1-Allyl-5-(2-hydroxy-3-tert-butylamino)propoxy-3,4-dihydrocarbostyril hydrochloride], for which, in data set [1] (average of animals), the “Intraocular pressure 30 minutes … average” value was 17.5 mm Hg and the “Intraocular pressure 1 hour … average” value was found to be 16.5 mm Hg.
For `O=C1CCc2c(cccc2OCC(O)CNC2CCCCC2)N1` (centres unmarked) [Compound G, 5-(2-Hydroxy-3-cyclohexylamino)propoxy-3,4-dihydrocarbostyril hydrochloride], in that order: 16.5 mm Hg and 16.5 mm Hg.
For the compound `O=C1CCc2c(cccc2OCC(O)CNCc2ccccc2)N1` (centres unmarked) [Compound F, 5-(2-Hydroxy-3-benzylamino)propoxy-3,4-dihydrocarbostyril hydrochloride], in data set [1] (average of animals), the “Intraocular pressure 30 minutes … average” value is reported as 18.5 mm Hg and the “Intraocular pressure 1 hour … average” value was 18.5 mm Hg.
Turning to `COc1ccc(CCNCC(O)COc2ccc(NC(C)=O)c3c2CCC(=O)N3)cc1OC` (stereo not drawn) [Compound L, 8-Acetylamino-5-[2-hydroxy-3-(β-3,4-dimethoxyphenethylamino)]propoxy-3,4-dihydrocarbostyril hydrochloride], in data set [1] (average of animals), the “Intraocular pressure 30 minutes … average” value is 18.0 mm Hg and the “Intraocular pressure 1 hour … average” value was found to be 17.5 mm Hg. In addition, in data set [1] (individual animal), the “Intraocular pressure 30 minutes after instillation” value is given as 18 mm Hg.
As for `COc1ccc(CCNCC(O)COc2ccc(OCC(C)=O)c3c2CCC(=O)N3)cc1OC` (stereo not drawn) [Compound C, 8-Methylcarbonylmethoxy-5-[2-hydroxy-3-(β-3,4-dimethoxyphenethylamino)]propoxy-3,4-dihydrocarbostyril oxalate], in data set [1] (average of animals), the “Intraocular pressure 30 minutes … average” value was 17.0 mm Hg and the “Intraocular pressure 1 hour … average” value turned out to be 17.0 mm Hg. In addition, the LD50 in data set [4] stood at 1260 mg/kg.
With `COc1ccc(CCNCC(O)COc2ccc(NC(N)=O)c3c2CCC(=O)N3)cc1OC` (stereo not drawn) [Compound J, 8-Ureido-5-[2-hydroxy-3-(β-3,4-dimethoxyphenethylamino)]propoxy-3,4-dihydrocarbostyril hydrochloride], in data set [1] (average of animals), the “Intraocular pressure 30 minutes … average” value is listed as 17.5 mm Hg and the “Intraocular pressure 1 hour … average” value is listed as 17.0 mm Hg. Besides, in data set [2], the LD50 stood at 143 mg/kg.
In the case of `COc1ccc(CCNCC(O)COc2ccc(O)c3c2CCC(=O)N3)cc1OC` (stereo not drawn) [Compound D, 8-Hydroxy-5-[2-hydroxy-3-(β-3,4-dimethoxyphenethylamino)]propoxy-3,4-dihydrocarbostyril hydrochloride], in data set [1] (average of animals), the “Intraocular pressure 30 minutes … average” value turned out to be 17.0 mm Hg and the “Intraocular pressure 1 hour … average” value is 14.0 mm Hg. In data set [1] (individual animal), the “Intraocular pressure 30 minutes after instillation” value is recorded as 17 mm Hg.

For orientation: LD50 means the dose expected to kill half of the subjects tested. A lower LD50 goes with greater toxicity.

The record behind these values is US4309432A, “Compositions for treating glaucoma containing a carbostyril” (priority 1979, dated 1982).
